The values below come from US8853418B2, “Cyclopentylpyrazoles as N-type calcium channel blockers” (Janssen Pharmaceutica NV, priority 2012, dated 2014).

In this experiment the target is N-type calcium channel (α1B (Cav2.2), β3 and α2δ subunits) (Homo sapiens, UniProt Q00975). The experiment in a line: Functional Assay: Antagonism of N-Type Calcium Channel (FDSS calcium mobilization, KCl depolarization). Type of experiment: cell-based. Here is the method:
A stable cell line (HEK parent) co-expressing the α1B (Cav2.2), β3 and α2δ subunits of the N-type calcium channel subunits was used. These cells were routinely grown as monolayers in low glucose-containing Dulbecco's Modified Eagle Medium supplemented with 10% FBS, 2 mM L-glutamine, 100 I.U./mL penicillin, 100 μg/mL streptomycin, 400 μg/mL G418 and 200 μg/mL Zeocin (split ratio=1:5). Cells were maintained in 5% CO2 at 37° C. Compounds of Formula (I) were prepared as 10 mM stocks in DMSO from neat compound, if available. Otherwise, the 5 or 10 mM DMSO stock solutions provided in-house were used.
Calcium mobilization responses to KCl depolarization were evaluated by measuring the intensity of calcium-mediated fluorescent signal in the presence of BD Calcium Assay Dye (BD Biosciences, Franklin Lakes, N.J., U.S.A.), utilizing a Functional Drug Screening System (FDSS) by Hamamatsu Corporation (Bridgewater, N.J. U.S.A.).
Twenty-four hr prior to assay, cells were seeded in clear-base poly-D-lysine-coated 384-well plates (BD Biosciences) at a density of 5,000 cells per well in culture medium and grown overnight in 5% CO2 at 37° C. On the day of assay, growth media were removed, and cells were loaded with BD calcium assay dye (BD Biosciences) for 35 min at 37° C. under 5% CO2 and then for 25 min at room temp. Utilizing the FDSS, cells were exposed to representative compounds of Formula (I) at varying concentrations, and intracellular calcium was measured for 5 min prior to the addition of 50 mM KCl for an additional 3 min of measurement.
Calculations and Formulas
IC50 values for representative compounds of Formula (I) were determined from six-point concentration-response experiments and represent the concentration of said compound required to inhibit 50% of the maximal response. Maximal fluorescence intensity (FI) achieved upon addition of 50 mM KCl was exported from the FDSS software and further analyzed using GraphPad Prism 3.02 (Graph Pad Software Inc., San Diego, Calif., U.S.A.). Data were normalized to the maximum average counts from quadruplicate wells for each condition in the presence of 50 mM KCl and to the minimum average counts in the presence of buffer. Theoretical curves were generated using nonlinear regression curve-fitting analysis of either sigmoidal concentration-response or sigmoidal concentration-response (variable slope), and the IC50 values with the best-fit curve determined by GraphPad Prism were reported.
For orientation: A change in cytosolic calcium serves as a functional read-out for many receptors and channels.

Setting [1] is: HEK cell line, 50 mM KCl depolarization, six-point concentration-response, read-out: FDSS IC50.

SMILES strings stand for the structures. Like-named read-outs stand apart in the source and are kept apart here.

As usually defined, the inhibition is the change of the read-out against control, counted positive when it falls. In general, IC50 refers to the concentration that inhibits the measured activity by half.

Sequence of N-type calcium channel (α1B (Cav2.2), β3 and α2δ subunits) (Q00975 whole entry): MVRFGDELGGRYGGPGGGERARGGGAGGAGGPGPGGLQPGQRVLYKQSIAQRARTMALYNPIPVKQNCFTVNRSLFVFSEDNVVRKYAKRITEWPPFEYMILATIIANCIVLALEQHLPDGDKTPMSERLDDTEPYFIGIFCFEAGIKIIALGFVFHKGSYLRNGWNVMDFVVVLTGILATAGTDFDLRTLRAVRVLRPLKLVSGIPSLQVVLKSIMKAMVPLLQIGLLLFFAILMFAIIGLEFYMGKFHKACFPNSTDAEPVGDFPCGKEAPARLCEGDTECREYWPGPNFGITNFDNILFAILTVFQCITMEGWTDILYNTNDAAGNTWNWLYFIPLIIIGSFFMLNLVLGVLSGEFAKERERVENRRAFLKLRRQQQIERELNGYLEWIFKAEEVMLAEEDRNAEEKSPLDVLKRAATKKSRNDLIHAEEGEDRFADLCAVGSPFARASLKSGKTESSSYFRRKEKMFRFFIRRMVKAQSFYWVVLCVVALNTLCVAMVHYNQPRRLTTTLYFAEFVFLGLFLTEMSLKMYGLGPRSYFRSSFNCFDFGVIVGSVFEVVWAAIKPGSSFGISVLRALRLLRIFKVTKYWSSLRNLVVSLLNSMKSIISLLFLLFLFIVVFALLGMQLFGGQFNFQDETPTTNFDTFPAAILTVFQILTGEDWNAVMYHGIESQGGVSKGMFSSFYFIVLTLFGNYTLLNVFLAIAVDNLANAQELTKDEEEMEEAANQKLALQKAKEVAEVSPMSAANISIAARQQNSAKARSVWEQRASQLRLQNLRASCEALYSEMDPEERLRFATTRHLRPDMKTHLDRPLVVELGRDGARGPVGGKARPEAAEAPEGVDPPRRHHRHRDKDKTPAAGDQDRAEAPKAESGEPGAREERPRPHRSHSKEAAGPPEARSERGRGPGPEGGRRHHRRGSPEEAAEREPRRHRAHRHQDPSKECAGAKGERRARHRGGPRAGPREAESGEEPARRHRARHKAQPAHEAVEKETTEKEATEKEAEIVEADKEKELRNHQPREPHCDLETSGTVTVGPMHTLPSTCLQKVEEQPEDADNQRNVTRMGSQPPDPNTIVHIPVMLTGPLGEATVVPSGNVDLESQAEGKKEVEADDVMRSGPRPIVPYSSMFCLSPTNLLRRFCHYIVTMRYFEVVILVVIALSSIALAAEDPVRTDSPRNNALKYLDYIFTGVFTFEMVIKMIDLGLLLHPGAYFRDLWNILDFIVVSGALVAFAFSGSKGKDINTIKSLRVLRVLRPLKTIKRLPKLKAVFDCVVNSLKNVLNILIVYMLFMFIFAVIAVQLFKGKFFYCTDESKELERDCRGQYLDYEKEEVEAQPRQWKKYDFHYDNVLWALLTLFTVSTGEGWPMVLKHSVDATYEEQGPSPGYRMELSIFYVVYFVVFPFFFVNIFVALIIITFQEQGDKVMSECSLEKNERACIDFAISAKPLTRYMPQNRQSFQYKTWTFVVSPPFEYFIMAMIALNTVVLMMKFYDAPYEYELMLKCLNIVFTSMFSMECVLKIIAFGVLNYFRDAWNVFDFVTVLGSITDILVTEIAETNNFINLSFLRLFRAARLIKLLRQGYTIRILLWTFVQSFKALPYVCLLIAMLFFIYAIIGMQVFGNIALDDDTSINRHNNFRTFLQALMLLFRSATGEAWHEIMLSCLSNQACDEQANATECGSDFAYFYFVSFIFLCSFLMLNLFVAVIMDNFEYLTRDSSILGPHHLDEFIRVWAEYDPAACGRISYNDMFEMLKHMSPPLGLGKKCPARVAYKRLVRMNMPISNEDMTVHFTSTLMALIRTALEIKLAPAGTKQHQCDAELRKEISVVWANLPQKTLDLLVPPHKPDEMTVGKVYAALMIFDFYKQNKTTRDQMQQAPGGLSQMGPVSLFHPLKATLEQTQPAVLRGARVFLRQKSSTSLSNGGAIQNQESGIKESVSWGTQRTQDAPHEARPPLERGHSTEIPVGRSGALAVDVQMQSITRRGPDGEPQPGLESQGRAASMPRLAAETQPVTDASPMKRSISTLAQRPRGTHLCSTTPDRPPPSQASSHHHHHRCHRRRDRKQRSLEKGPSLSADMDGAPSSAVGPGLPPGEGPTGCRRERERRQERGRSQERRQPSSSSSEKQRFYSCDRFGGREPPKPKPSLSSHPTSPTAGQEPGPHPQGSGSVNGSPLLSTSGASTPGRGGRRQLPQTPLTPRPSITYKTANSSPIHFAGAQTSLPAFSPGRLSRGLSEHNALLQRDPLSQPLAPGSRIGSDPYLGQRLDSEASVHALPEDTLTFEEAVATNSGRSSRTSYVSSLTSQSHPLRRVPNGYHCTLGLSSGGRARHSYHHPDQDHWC
Sequence of N-type calcium channel (α1B (Cav2.2), β3 and α2δ subunits) (P54284 whole entry partner): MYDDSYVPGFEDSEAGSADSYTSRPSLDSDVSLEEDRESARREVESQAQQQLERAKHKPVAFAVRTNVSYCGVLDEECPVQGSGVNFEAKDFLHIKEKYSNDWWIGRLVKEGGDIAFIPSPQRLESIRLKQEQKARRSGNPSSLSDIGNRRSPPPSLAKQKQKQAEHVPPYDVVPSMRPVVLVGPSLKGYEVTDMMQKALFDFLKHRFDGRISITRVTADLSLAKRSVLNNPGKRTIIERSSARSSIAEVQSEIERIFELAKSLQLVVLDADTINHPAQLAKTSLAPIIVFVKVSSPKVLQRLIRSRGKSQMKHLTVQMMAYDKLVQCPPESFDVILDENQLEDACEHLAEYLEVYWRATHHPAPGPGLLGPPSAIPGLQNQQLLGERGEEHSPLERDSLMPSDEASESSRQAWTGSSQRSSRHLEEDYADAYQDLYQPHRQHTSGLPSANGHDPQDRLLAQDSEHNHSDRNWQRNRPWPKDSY
Sequence of N-type calcium channel (α1B (Cav2.2), β3 and α2δ subunits) (P54289 25-946 partner limits assumed): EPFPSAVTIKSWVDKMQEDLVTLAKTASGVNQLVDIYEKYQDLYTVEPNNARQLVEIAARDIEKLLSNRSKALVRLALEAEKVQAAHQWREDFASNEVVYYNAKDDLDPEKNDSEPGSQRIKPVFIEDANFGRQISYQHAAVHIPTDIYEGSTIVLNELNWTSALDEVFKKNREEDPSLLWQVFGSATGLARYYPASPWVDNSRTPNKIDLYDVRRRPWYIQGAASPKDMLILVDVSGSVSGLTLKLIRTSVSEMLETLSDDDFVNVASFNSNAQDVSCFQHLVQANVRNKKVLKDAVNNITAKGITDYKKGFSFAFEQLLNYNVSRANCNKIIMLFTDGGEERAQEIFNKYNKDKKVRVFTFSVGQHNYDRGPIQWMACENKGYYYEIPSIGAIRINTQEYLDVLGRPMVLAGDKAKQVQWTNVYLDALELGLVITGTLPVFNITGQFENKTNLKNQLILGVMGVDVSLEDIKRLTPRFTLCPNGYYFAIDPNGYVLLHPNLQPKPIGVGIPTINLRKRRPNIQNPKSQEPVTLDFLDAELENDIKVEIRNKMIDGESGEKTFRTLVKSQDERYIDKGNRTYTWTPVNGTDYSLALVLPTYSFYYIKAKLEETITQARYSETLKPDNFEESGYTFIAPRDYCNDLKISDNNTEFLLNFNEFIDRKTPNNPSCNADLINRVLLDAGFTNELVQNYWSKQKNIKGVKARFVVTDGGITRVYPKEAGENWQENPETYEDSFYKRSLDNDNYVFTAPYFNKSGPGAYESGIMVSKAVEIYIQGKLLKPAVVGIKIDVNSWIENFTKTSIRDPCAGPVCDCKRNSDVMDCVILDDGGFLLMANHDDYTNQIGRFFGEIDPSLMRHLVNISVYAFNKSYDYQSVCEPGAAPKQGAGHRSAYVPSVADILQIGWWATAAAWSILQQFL
Sequence of N-type calcium channel (α1B (Cav2.2), β3 and α2δ subunits) (P54289 947-1103 partner limits assumed): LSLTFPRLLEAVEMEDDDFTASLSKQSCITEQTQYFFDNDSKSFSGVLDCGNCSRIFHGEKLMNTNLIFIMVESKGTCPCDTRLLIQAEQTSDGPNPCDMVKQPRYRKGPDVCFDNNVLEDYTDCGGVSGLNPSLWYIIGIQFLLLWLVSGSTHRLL

On to `COc1ccccc1-n1nc2c(c1-c1ccc(Cl)cc1)CC(c1ccc(N3CCOCC3)nc1)C2` (stereo not drawn) [Compound 62, 3-(4-chlorophenyl)-2-(2-methoxyphenyl)-5-(6-morpholin-4-ylpyridin-3-yl)-2,4,5,6-tetrahydrocyclopenta[c]pyrazole], for which, under “0.33 μM”, the inhibition at 0.33 µM stood at 42%. In the case of `COc1ccccc1-n1nc2c(c1-c1ccc(Cl)cc1)CC(C1CCC(C)(C)CC1)C2` (stereo not drawn) [Compound 64, 3-(4-chlorophenyl)-5-(4,4-dimethylcyclohexyl)-2-(2-methoxyphenyl)-2,4,5,6-tetrahydrocyclopenta[c]pyrazole], the inhibition at 0.33 µM (0.33 μM) stood at 66%. Besides, the IC50 under setting [1] came out at 0.28 µM. `COc1ccccc1-n1nc2c(c1-c1ccc(Cl)cc1)CC(C1CNc3ccccc3C1)C2` (stereo not drawn) [Compound 65, 3-[3-(4-chlorophenyl)-2-(2-methoxyphenyl)-2,4,5,6-tetrahydrocyclopenta[c]pyrazol-5-yl]-1,2,3,4-tetrahydroquinoline]: the inhibition at 0.33 µM (0.33 μM) was 59%. Besides, the IC50 under setting [1] is 0.28 µM. For the compound `CCOC(=O)c1cncc(C2Cc3nn(-c4ccccc4OC)c(-c4ccc(Cl)cc4)c3C2)c1` (stereo not drawn) [Compound 66, Ethyl 5-[3-(4-chlorophenyl)-2-(2-methoxyphenyl)-2,4,5,6-tetrahydrocyclopenta[c]pyrazol-5-yl]pyridine-3-carboxylate], the inhibition at 0.33 µM (0.33 μM) turned out to be 79%. Besides, the IC50 under setting [1] stood at 0.066 µM. For `CCC(CC)CO[C@@H]1Cc2nn(-c3ccccc3OC)c(-c3ccc(Cl)cc3)c2C1` [Compound 72, (5S)-3-(4-chlorophenyl)-5-(2-ethylbutoxy)-2-(2-methoxyphenyl)-2,4,5,6-tetrahydrocyclopenta[c]pyrazole], in that order: 78% and 0.061 µM. For `COc1ccccc1-n1nc2c(c1-c1ccc(Cl)cc1)CC(c1ccc(C)nc1)C2` (stereo not drawn) [Compound 73, 3-(4-chlorophenyl)-2-(2-methoxyphenyl)-5-(6-methylpyridin-3-yl)-2,4,5,6-tetrahydrocyclopenta[c]pyrazole] the same measures were 81% and 0.086 µM. For `CCOc1ccc(C2Cc3nn(-c4ccccc4OC)c(-c4ccc(Cl)cc4)c3C2)cn1` (stereo not drawn) [Compound 74, 3-(4-chlorophenyl)-5-(6-ethoxypyridin-3-yl)-2-(2-methoxyphenyl)-2,4,5,6-tetrahydrocyclopenta[c]pyrazole] the same measures were 61% and 0.15 µM. `COc1ccccc1-n1nc2c(c1-c1ccc(Cl)cc1)CC(c1ccc(C(C)C)nc1Cl)C2` (stereo not drawn) [Compound 75, 5-[2-Chloro-6-(1-methylethyl)pyridin-3-yl]-3-(4-chlorophenyl)-2-(2-methoxyphenyl)-2,4,5,6-tetrahydrocyclopenta[c]pyrazole]: the inhibition at 0.33 µM (0.33 μM) was 53%. Further, under setting [1], the IC50 stood at 0.23 µM. For `COc1ccccc1-n1nc2c(c1-c1ccc(Cl)cc1)CC(c1ccc(C3CC3)nc1)C2` (stereo not drawn) [Compound 77, 3-(4-chlorophenyl)-5-(6-cyclopropylpyridin-3-yl)-2-(2-methoxyphenyl)-2,4,5,6-tetrahydrocyclopenta[c]pyrazole] the same measures were 81% and 0.062 µM. In the case of `COc1ccccc1-n1nc2c(c1-c1ccc(Cl)cc1)C[C@H](OCC1CCCCC1)C2` [Compound 82, (5S)-3-(4-chlorophenyl)-5-(cyclohexylmethoxy)-2-(2-methoxyphenyl)-2,4,5,6-tetrahydrocyclopenta[c]pyrazole], the inhibition at 0.33 µM was 76%. Moreover, for the setting “FDSS IC50”, the IC50 was found to be 0.13 µM.

On to `COc1ccccc1-n1nc2c(c1-c1ccc(Cl)cc1)C[C@H](OCC1CCCC1)C2` [Compound 83, (5S)-3-(4-chlorophenyl)-5-(cyclopentylmethoxy)-2-(2-methoxyphenyl)-2,4,5,6-tetrahydrocyclopenta[c]pyrazole], for which the inhibition at 0.33 µM was 92%. Besides, the IC50 under setting [1] amounted to 0.049 µM. Turning to `COc1ccccc1-n1nc2c(c1-c1ccc(Cl)cc1)C[C@H](OCC1CCC1)C2` [Compound 84, (5S)-3-(4-chlorophenyl)-5-(cyclobutylmethoxy)-2-(2-methoxyphenyl)-2,4,5,6-tetrahydrocyclopenta[c]pyrazole], the inhibition at 0.33 µM stood at 80%. `COc1ccccc1-n1nc2c(c1-c1ccc(Cl)cc1)C[C@H](OC(=O)C1CCOCC1)C2` [Compound 86, (5S)-3-(4-chlorophenyl)-2-(2-methoxyphenyl)-2,4,5,6-tetrahydrocyclopenta[c]pyrazol-5-yl tetrahydro-2H-pyran-4-carboxylate]: the inhibition at 0.33 µM (0.33 μM) stood at 82%. Further, the IC50 under setting [1] was determined as 0.082 µM. For `COc1ccccc1-n1nc2c(c1-c1ccc(Cl)cc1)C[C@H](OCC1CCOCC1)C2` [Compound 87, (5S)-3-(4-chlorophenyl)-2-(2-methoxyphenyl)-5-(tetrahydro-2H-pyran-4-ylmethoxy)-2,4,5,6-tetrahydrocyclopenta[c]pyrazole] the same measures were 82% and 0.092 µM. For `COc1ccccc1-n1nc2c(c1-c1ccc(Cl)cc1)CC(C(C)C)C2` (stereo not drawn) [Compound 92, 3-(4-chlorophenyl)-2-(2-methoxyphenyl)-5-(1-methylethyl)-2,4,5,6-tetrahydrocyclopenta[c]pyrazole], the inhibition at 0.33 µM is 43%. On to `CCOc1ccc(-c2c3c(nn2-c2ccccc2OC)CC2(C3)OCC(C)(C)CO2)cn1` [Compound 94, 3-(6-ethoxypyridin-3-yl)-2-(2-methoxyphenyl)-5′,5′-dimethyl-2,6-dihydro-4H-spiro[cyclopenta[c]pyrazole-5,2′-[1,3]dioxane]], for which the inhibition at 0.33 µM (0.33 μM) came out at 81%. Also, the IC50 under setting [1] came to 0.06 µM.

For `COc1ccccc1-n1nc2c(c1-c1ccc(C)nc1)CC1(C2)OCC(C)(C)CO1` [Compound 95, 2-(2-methoxyphenyl)-5′,5′-dimethyl-3-(6-methylpyridin-3-yl)-2,6-dihydro-4H-spiro[cyclopenta[c]pyrazole-5,2′-[1,3]dioxane]], where the note is “0.33 μM”, the inhibition at 0.33 µM was 67%. Also, the IC50 under setting [1] was 0.11 µM.

With `COc1ccccc1-n1nc2c(c1-c1ccc(Cl)cc1)CC(C1CCCCC1)C2` (stereo not drawn) [Compound 104, 3-(4-chlorophenyl)-5-cyclohexyl-2-(2-methoxyphenyl)-2,4,5,6-tetrahydrocyclopenta[c]pyrazole], the inhibition at 0.33 µM (0.33 μM) amounted to 61%. In addition, the IC50 under setting [1] stood at 0.14 µM. For `COc1ccccc1-n1nc2c(c1-c1ccc(C#N)cc1)CC(CC1CCCCC1)C2` (stereo not drawn) [Compound 106, 4-[5-(cyclohexylmethyl)-2-(2-methoxyphenyl)-2,4,5,6-tetrahydrocyclopenta[c]pyrazol-3-yl]benzonitrile] the same measures were 64% and 0.27 µM. For `COc1ccccc1-n1nc2c(c1-c1ccc(Cl)cc1)CC(N1CC(C)OC(C)C1)C2` (stereo not drawn) [Compound 116, 3-(4-chlorophenyl)-5-(2,6-dimethylmorpholin-4-yl)-2-(2-methoxyphenyl)-2,4,5,6-tetrahydrocyclopenta[c]pyrazole], the inhibition at 0.33 µM (0.33 μM) worked out at 77%. Further, the IC50 under setting [1] worked out at 0.048 µM. For `COc1ccccc1-n1nc2c(c1-c1ccc(Cl)cc1)CC(N1CCC(C)CC1)C2` (stereo not drawn) [Compound 117, 3-(4-chlorophenyl)-2-(2-methoxyphenyl)-5-(4-methylpiperidin-1-yl)-2,4,5,6-tetrahydrocyclopenta[c]pyrazole], the inhibition at 0.33 µM (0.33 μM) turned out to be 75%. Besides, the IC50 under setting [1] is 0.044 µM. Consider `CCC1(CC)CCN(C2Cc3nn(-c4ccccc4OC)c(-c4ccc(Cl)cc4)c3C2)C1` (stereo not drawn) [Compound 118, 3-(4-chlorophenyl)-5-(3,3-diethylpyrrolidin-1-yl)-2-(2-methoxyphenyl)-2,4,5,6-tetrahydrocyclopenta[c]pyrazole], for which the inhibition at 0.33 µM (0.33 μM) was 76%. Further, the IC50 under setting [1] stood at 0.046 µM. For `COc1ccccc1-n1nc2c(c1-c1ccc(Cl)cc1)CC(N1CCC(C)(C)C1)C2` (stereo not drawn) [Compound 119, 3-(4-chlorophenyl)-5-(3,3-dimethylpyrrolidin-1-yl)-2-(2-methoxyphenyl)-2,4,5,6-tetrahydrocyclopenta[c]pyrazole] the same measures were 76% and 0.084 µM.

In the case of `COc1ccccc1-n1nc2c(c1-c1ccc(Cl)s1)CC1(C2)OCC(C)(C)CO1` [Compound 120, 3-(5-chlorothiophen-2-yl)-2-(2-methoxyphenyl)-5′,5′-dimethyl-2,6-dihydro-4H-spiro[cyclopenta[c]pyrazole-5,2′-[1,3]dioxane]], for the setting “0.33 μM”, the inhibition at 0.33 µM is 78%. Further, the IC50 under setting [1] came out at 0.091 µM.
